The text below walks through data of US20210169984A1, “SENSITIZING CANCER TO DEATH RECEPTOR AGONISTS WITH KINASE INHIBITORS” (The Johns Hopkins University, priority 2016, published 2021).

For data set [1] the following is noted: mouse, in vivo; cited from earlier work.
Data set [2] concerns HP LNCAP prostate adenocarcinoma cells. The data set is described as follows: KI library screen for TRAIL sensitization. It counts as cell-based, human. The text has this:
(§1) A library of KIs was screened for TRAIL sensitization in various TRAIL-resistant cancer cells, including: HT29 (CRC), MDA-MB-231 (breast), LNCAP (prostate), DU145 (prostate), PC3 (prostate) and A549 (lung). […] The 355 KIs comprised of compounds targeting diverse kinases, including multi kinases, RTK (receptor kinase tyrosine), PI3K (phosphinistide 3-kinase), aurora kinases, including […] (mitogen-activated protein kinase). […] The interaction between KIs and TRAIL had been previously explored in vitro with the tyrosine KI sorafenib, a drug similar to regorafenib. However, such studies were mostly performed on cellular levels and not in in vivo models, combined with systemically administered recombinant TRAIL. Although a similar structure, regorafenib was newly approved in 2012. The interactions between the three other selected KIs and TRAIL have not been previously reported, in vitro or in vivo.
Regorafenib potentiated TRAIL-induced apoptosis in prostate cancer cells (LNCAP, HPLNCAP (High Passages LNCAP), DU-145 and PC-3) when combined with TRAILPEG (1 μg/mL) (FIG. 5). After treating cells with regorafenib (5 μM), caspases and anti-apoptotic proteins were analyzed by western blotting (FIG. 6A-FIG. 6C). […] Data confirmed that FDA-approved KIs or KIs under clinical development synergized with long-acting TRAILPEG by overcoming TRAIL-resistance through unique TRAIL sensitization mechanisms.

Data set [3] deals with MDA-MB-231 breast cancer cells. The data set is described as follows: KI library screen for TRAIL sensitization. The format is cell-based, human.
Source text: as §1

Data set [4] concerns DU-145 prostate adenocarcinoma cells. The data set is described as follows: KI library screen for TRAIL sensitization. It counts as cell-based, human.
Source text: as §1

Data set [5] has as its system A549 lung carcinoma cells. The data set is described as follows: KI library screen for TRAIL sensitization. The format is cell-based, human.
Source text: as §1

In data set [6] the test system is PC3 prostate adenocarcinoma cells. The data set is described as follows: KI library screen for TRAIL sensitization. The format is cell-based, human. On the procedure: FIG. 2B depicts a bar graph showing quantified cell death after analyzing synergized cell death induced by TRAILPEG (1 μg/mL for 3 hr) and kinase inhibitors (KIs) in HT29 (human colon tumor cell line) and PC3 (human prostate tumor cell line) cells individually pretreated with selected 355 KIs. Relative cell death rates were calculated by [KI+TRAILPEG]/[KI alone] after separate MTT assays. The arrows indicate KIs with >60% cell death; n=3.
as §1

The subject of data set [7] is LNCAP prostate adenocarcinoma cells. The data set is described as follows: KI library screen for TRAIL sensitization. The format is cell-based, human.
Source text: as §1

On to “10K-PEG-TRAIL: TRAIL derivatized with 10K PEG (Kim, et al.)”, for which, in data set [1], the circulating half-life is reported as 6.2 h. As to `C=CC(=O)Nc1ccc2ncnc(Nc3cccc(Br)c3)c2c1` [PD168393], in data set [2], the “KIs that sensitize cancer cells to TRAIL-based agents” value (“KIs that sensitize cancer cells” for short) is “Example KIs that sensitize cancer cells to TRAIL-based agents”. With `COc1cc2ncnc(Nc3ccc(F)c(Cl)c3)c2cc1NC(=O)/C=C/CN1CCCCC1` [Dacomitinib (PF299804, PF299), Dacomitinib], the “KIs that sensitize cancer cells” value in data set [3] and in data set [4] was “Example KIs that sensitize cancer cells to TRAIL-based agents” each time. For the compound `COCCOc1ccc2c(c1)ncn2-c1ccc2cccc(N3CCC(N)CC3)c2n1` [CP-673451], the “KIs that sensitize cancer cells” value in data set [5] and in data set [6] was “Example KIs that sensitize cancer cells to TRAIL-based agents” in each case.

On to `CC(C)(C)c1cc(C=C(C#N)C#N)cc(C(C)(C)C)c1O` [Tyrphostin 9], for which the “KIs that sensitize cancer cells” value in data set [7], in data set [4], in data set [6] and in data set [2] was “Example KIs that sensitize cancer cells to TRAIL-based agents” in each case. For “20K-PEG-TRAIL: TRAIL derivatized with 20K PEG (Kim, et al.)”, the circulating half-life in data set [1] is on record as 12.3 h.

Turning to `CCOc1cc2ncc(C#N)c(Nc3ccc(OCc4ccccn4)c(Cl)c3)c2cc1NC(=O)/C=C/CN(C)C` [Neratinib (HKI-272), Neratinib], in data set [4], the “KIs that sensitize cancer cells” value was “Example KIs that sensitize cancer cells to TRAIL-based agents”. Take “2K-PEG-TRAIL: TRAIL derivatized with 2K PEG (Kim, et al.)”: the circulating half-life in data set [1] is given as 3.9 h. For “5K-PEG-TRAIL: TRAIL derivatized with 5K PEG (Kim, et al.)”, the circulating half-life in data set [1] is recorded as 5.3 h. For `COc1cc(N2CCC(N)CC2)ccc1Nc1ncc(Cl)c(-c2c[nH]c3ccccc23)n1` [AZD3463], the “KIs that sensitize cancer cells” value in data set [4] and in data set [6] was “Example KIs that sensitize cancer cells to TRAIL-based agents” throughout. Turning to `Cn1cc(-c2ccc3nnc(Sc4ccc5ncccc5c4)n3n2)cn1` [SGX-523], the “KIs that sensitize cancer cells” value in data set [7] and in data set [2] was “Example KIs that sensitize cancer cells to TRAIL-based agents” in each case. Regarding `C=CC(=O)Nc1cccc(Oc2nc(Nc3ccc(N4CCN(C)CC4)cc3OC)ncc2Cl)c1` [WZ4002], the “KIs that sensitize cancer cells” value in data set [5] and in data set [2] was “Example KIs that sensitize cancer cells to TRAIL-based agents” each time. Regarding `COc1cc2nccc(Oc3ccc(NC(=O)NC4CC4)c(Cl)c3)c2cc1C(N)=O` [Lenvatinib (E7080), Lenvatinib], the “KIs that sensitize cancer cells” value in data set [2] is “Example KIs that sensitize cancer cells to TRAIL-based agents”. Still for that read-out and setting: next, `CC(C)(C)c1cc(/C=C(\C#N)C(N)=S)cc(C(C)(C)C)c1O` [Tyrphostin AG 879]: “Example KIs that sensitize cancer cells to TRAIL-based agents”.

For “30K-PEG-TRAIL: TRAIL derivatized with 30K PEG (Kim, et al.)”, the circulating half-life in data set [1] is 17.7 h. In the case of `C=CC(=O)Nc1ccc2ncnc(Nc3ccc(OCc4cccc(F)c4)c(Cl)c3)c2c1` [AST-1306], the “KIs that sensitize cancer cells” value in data set [4] and in data set [6] was “Example KIs that sensitize cancer cells to TRAIL-based agents” throughout. Take `COc1cc2c(Oc3ccc(NC(=O)C4(C(=O)Nc5ccc(F)cc5)CC4)cc3F)ccnc2cc1OCCCN1CCOCC1` [Foretinib (GSK1363089), Foretinib]: in data set [4], the “KIs that sensitize cancer cells” value was “Example KIs that sensitize cancer cells to TRAIL-based agents”.
